Test results published in PMC12720774, “Detergents alter the stability and lipid binding properties of the CD1d immunoreceptor” (Protein Science : A Publication of the Protein Society, 2025).
Values joined by “and” are separate entries in the source; they are usually repeats but may differ in a detail not shown here. Equal values may be shown once. Read-outs that look alike come from different tables or passages of the source.

Assays:
AF647‐labeled hCD1d = target: T1, AF647‐labeled hCD1d (Homo sapiens, UniProt P15813+P61769); test: Microscale thermophoresis (MST) binding assay
T1 construct: TEV protease cleavage site ENLYFQS (C); BirA biotinylation site (C); His7 (C); made in house; host or cells: TurboCHO cells (GenScript)
Excerpt: The experimental limitations of ITF, such as low instrument sensitivity, high sample consumption, signal overlap with some ligands, and low throughput (Fossum et al., [2023]), made it necessary to employ alternative, complementary assays to quantify detergent binding to hCD1d. […] MST measures the diffusion of fluorescent molecules in response to microscopic temperature gradients (Seidel et al., [2013]). When a protein forms a complex with a ligand, changes in hydrodynamic properties, charge, or solvation energy alter its thermophoretic behavior, allowing detection of binding events. To perform MST experiments, Alexa Fluor 647 (AF647) dye was covalently attached to the primary amines of hCD1d via standard N‐hydroxysuccinimide coupling chemistry (Anderson et al., [1964]). The concentration of AF647‐hCD1d was kept constant, and the change in MST signal was measured as a function of increasing detergent concentration (Figure S3). Like ITF, any lipid or detergent that destabilizes CD1 can also alter the MST signal since unfolding changes the protein's Stokes radius and its thermophoretic behavior. […] This is why we compare MST results with ITF and nanoDSF, as described below.
For MST, hCD1d was fluorescently labeled with AF647‐NHS Ester (Invitrogen #A20006). Briefly, a 10 mM stock of AF647‐NHS was prepared in anhydrous DMSO. Then, 100 μL of 50 μM hCD1d in 1X PBS pH 7.4 was mixed with 1 μL of 10 mM AF647‐NHS (1:2 molar ratio of protein: dye). The mixture was allowed to react for 1 h in the dark at 25°C. Unreacted dye was removed from the protein–dye conjugate by performing size exclusion chromatography in the dark with a Superdex 200 Increase 10/300 GL column at a flow rate of 0.5 mL/min in SEC buffer (100 mM NaCl, 20 mM sodium phosphate, pH 7.2). The degree of labeling was determined by a NanoDrop spectrophotometer at A647 nm (dye absorbance) and A280 nm (hCD1d absorbance). The degree of labeling was determined from the ratio of dye concentration to protein concentration. The degree of labeling was ~75%.
MST experiments were performed using a Monolith NT.115 instrument (NanoTemper Technologies) using Monolith standard capillaries and the red excitation laser setup. The following settings were applied for all MST experiments: excitation power: 30%–50%, MST power: medium, before MST time: 3 s, MST on time (IR laser): 20 seconds, and after MST time: 1 s. MST measurements were analyzed using the Monolith Affinity Analysis software v2.3 and exported for plotting in GraphPad Prism v10.1. Three replicates were performed, and data are presented as the mean ± standard deviation (n = 3).
MST measurements of 100 nM AF647‐hCD1d were acquired in the absence and presence of detergents in 1X PBS pH 7.4 at 25°C. Prior to data acquisition, hCD1d and detergent or lipid samples were incubated at 37°C overnight (~12 h) to simulate in vitro and in vivo loading conditions. […] For 18:1 LPC experiments: MST data of 100 nM AF647‐hCD1d were acquired in the absence and presence of 18:1 LPC in 1X PBS pH 7.4 at 25°C.

[1] = approximate, ref Fisher catalogue, cited from earlier work

T1 sequence (P61769+P15813 fused): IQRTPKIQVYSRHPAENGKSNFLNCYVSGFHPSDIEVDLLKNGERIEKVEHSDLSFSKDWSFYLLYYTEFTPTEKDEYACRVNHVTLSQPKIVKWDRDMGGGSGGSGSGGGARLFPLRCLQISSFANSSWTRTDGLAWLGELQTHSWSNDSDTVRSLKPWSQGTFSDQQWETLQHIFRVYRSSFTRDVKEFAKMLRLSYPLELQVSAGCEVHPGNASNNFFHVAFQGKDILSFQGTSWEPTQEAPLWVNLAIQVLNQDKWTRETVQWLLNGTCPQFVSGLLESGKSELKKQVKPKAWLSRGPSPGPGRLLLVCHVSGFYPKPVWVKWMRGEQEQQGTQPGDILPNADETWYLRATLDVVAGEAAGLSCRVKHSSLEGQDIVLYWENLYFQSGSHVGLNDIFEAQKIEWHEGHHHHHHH

## NP‐40
AF647‐labeled hCD1d; 3.05176e-8 M detergent
  Fnorm (rep 1-3): 785.26 ‰ and 791.115 ‰ and 789.222 ‰
AF647‐labeled hCD1d; 6.10352e-8 M detergent
  Fnorm (rep 1-3): 784.438 ‰ and 791.56 ‰ and 788.778 ‰
AF647‐labeled hCD1d; 1.2207e-7 M detergent
  Fnorm (rep 1-3): 784.577 ‰ and 791.858 ‰ and 788.445 ‰
AF647‐labeled hCD1d; 2.44141e-7 M detergent
  Fnorm (rep 1-3): 783.564 ‰ and 789.878 ‰ and 788.022 ‰
AF647‐labeled hCD1d; 4.88281e-7 M detergent
  Fnorm (rep 1-3): 786.159 ‰ and 790.976 ‰ and 787.911 ‰
AF647‐labeled hCD1d; 9.76563e-7 M detergent
  Fnorm (rep 1-3): 783.182 ‰ and 790.102 ‰ and 788.409 ‰
AF647‐labeled hCD1d; 1.95313e-6 M detergent
  Fnorm (rep 1-3): 785.891 ‰ and 792.21 ‰ and 790.819 ‰
AF647‐labeled hCD1d; 3.90625e-6 M detergent
  Fnorm (rep 1-3): 790.454 ‰ and 796.89 ‰ and 795.418 ‰
AF647‐labeled hCD1d; 7.8125e-6 M detergent
  Fnorm (rep 1-3): 794.424 ‰ and 799.885 ‰ and 798.852 ‰
AF647‐labeled hCD1d; 1.5625e-5 M detergent
  Fnorm (rep 1-3): 798.147 ‰ and 805.399 ‰ and 802.688 ‰
AF647‐labeled hCD1d; 3.125e-5 M detergent
  Fnorm (rep 1-3): 808.083 ‰ and 815.048 ‰ and 810.611 ‰
AF647‐labeled hCD1d; 6.25e-5 M detergent
  Fnorm (rep 1-3): 810.692 ‰ and 818.134 ‰ and 815.29 ‰
AF647‐labeled hCD1d; 0.000125 M detergent
  Fnorm (rep 1-3): 813.488 ‰ and 820.003 ‰ and 816.128 ‰
AF647‐labeled hCD1d; 0.00025 M detergent
  Fnorm (rep 1-3): 817.047 ‰ and 822.493 ‰ and 816.971 ‰
AF647‐labeled hCD1d; 0.0005 M detergent
  Fnorm (rep 1-3): 814.88 ‰ and 822.01 ‰ and 817.951 ‰
AF647‐labeled hCD1d; 0.001 M detergent, 100 nM AF647‐hCD1d
  Fnorm (rep 1-3): 817.154 ‰ and 821.721 ‰ and 817.771 ‰
AF647‐labeled hCD1d; Figure 5B, detergent binding to hCD1d, read-out: MST - Kd (uM) average
  Kd: 15.1 µM
AF647‐labeled hCD1d; detergent with 100 nM AF647‐labeled hCD1d, 25°C, apparent, read-out: K D (MST)
  Kd: 15.1 ± 1.5 µM
[1]
  CMC: 290 µM
[1]; weight/volume
  CMC: 0.0179%
